From patent publication US10329309B2, “3-(3H-imidazo[4,5-B]pyridin-2-yl)-1H-pyrazolo[4,3-B]pyridines and therapeutic uses thereof” (Samumed, LLC, priority 2015, dated 2019)

Test system: Wnt activity (Sp5-Luc reporter, SW480 colon carcinoma cells)
Assay: Screening assay for Wnt activity: Sp5-Luc reporter gene assay in SW480 cells
Format: cell-based
Conditions: Homo sapiens; for inhibition at 10 µM: 10 μM compound, read-out: percent inhibition at 10 μM (given for EC50 of >10 μM); for EC50: overnight incubation, 10-point dose-response from 10 μM
Text: The screening assay for Wnt activity is described as follows. Reporter cell lines can be generated by stably transducing cancer cell lines (e.g., colon cancer) or primary cells (e.g., IEC-6 intestinal cells) with a lentiviral construct that includes a Wnt-responsive promoter driving expression of the firefly luciferase gene.
SW480 colon carcinoma cells were transduced with a lentiviral vector expressing luciferase with a human Sp5 promoter consisting of a sequence of eight TCF/LEF binding sites. SW480 cells stably expressing the Sp5-Luc reporter gene and a hygromycin resistance gene were selected by treatment with 150 μg/mL of hygromycin for 7 days. These stably transduced SW480 cells were expanded in cell culture and used for all further screening activities. Each compound was dissolved in DMSO as a 10 mM stock and used to prepare compound source plates. Serial dilution (1:3, 10-point dose-response curves starting from 10 μM) and compound transfer was performed using the ECHO 550 (Labcyte, Sunnyvale, Calif.) into 384-well white solid bottom assay plates (Greiner Bio-One) with appropriate DMSO backfill for a final DMSO concentration of 0.1%. For Sp5-Luc reporter gene assays, the cells were plated at 4,000 cells/well in 384-well plates with medium containing 1% fetal bovine serum and incubated overnight at 37° C. and 5% CO2. Following incubation, 20 μl of BrightGlo luminescence reagent (Promega) was added to each well of the 384-well assay plates. The plates were placed on an orbital shaker for 2 min and then luminescence was quantified using the Envision (Perkin Elmer) plate reader. Readings were normalized to DMSO only treated cells, and normalized activities were utilized for EC50 calculations using the dose-response log (inhibitor) vs. response -variable slope (four parameters) nonlinear regression feature available in GraphPad Prism 5.0 (or Dotmatics). For EC50 of >10 μM, the percent inhibition at 10 μM is provided.

| Compound | EC50 | inhibition at 10 µM |
| --- | --- | --- |
| Oc1cncc(-c2ccc3[nH]nc(-c4nc5c(-c6cccnc6)ccnc5[nH]4)c3n2)c1 [Compound 565, 5-(3-(7-(Pyridin-3-yl)-3H-imidazo[4,5-b]pyridin-2-yl)-1H-pyrazolo[4,3-b]pyridin-5-yl)pyridin-3-ol] | > 10 µM | 14.1% |
| c1cc(-c2ccnc3[nH]c(-c4n[nH]c5ccc(-c6cncc(OC7CCNCC7)c6)nc45)nc23)ccn1 [Compound 576, 5-(5-(Piperidin-4-yloxy)pyridin-3-yl)-3-(7-(pyridin-4-yl)-3H-imidazo[4,5-b]pyridin-2-yl)-1H-pyrazolo[4,3-b]pyridine] | > 10 µM | 8.9% |
| c1ccc(COc2cncc(-c3ccc4[nH]nc(-c5nc6c(-c7ccncc7)ccnc6[nH]5)c4n3)c2)cc1 [Compound 582, 5-(5-(Benzyloxy)pyridin-3-yl)-3-(7-(pyridin-4-yl)-3H-imidazo[4,5-b]pyridin-2-yl)-1H-pyrazolo[4,3-b]pyridine] | > 10 µM | 5.8% |
| c1cc(-c2ccnc3[nH]c(-c4n[nH]c5ccc(-c6cnccn6)nc45)nc23)ccn1 [Compound 584, 5-(Pyrazin-2-yl)-3-(7-(pyridin-4-yl)-3H-imidazo[4,5-b]pyridin-2-yl)-1H-pyrazolo[4,3-b]pyridine] | > 10 µM | 8.5% |
| O=C(CC1CCNCC1)Nc1cncc(-c2ccc3[nH]nc(-c4nc5c(-c6ccccn6)ccnc5[nH]4)c3n2)c1 [Compound 593, 2-(Piperidin-4-yl)-N-(5-(3-(7-(pyridin-2-yl)-3H-imidazo[4,5-b]pyridin-2-yl)-1H-pyrazolo[4,3-b]pyridin-5-yl)pyridin-3-yl)acetamide] | > 10 µM | 29.3% |
| c1cc(N2CCCCC2)c2nc(-c3n[nH]c4ccc(-c5cncc(OCCN6CCCC6)c5)nc34)[nH]c2n1 [Compound 610, 3-(7-(Piperidin-1-yl)-3H-imidazo[4,5-b]pyridin-2-yl)-5-(5-(2-(pyrrolidin-1-yl)ethoxy)pyridin-3-yl)-1H-pyrazolo[4,3-b]pyridine] | > 10 µM | 4.8% |
| COc1cncc(-c2ccc3[nH]nc(-c4nc5c(N6CCCCC6)ccnc5[nH]4)c3n2)c1 [Compound 612, 5-(5-Methoxypyridin-3-yl)-3-(7-(piperidin-1-yl)-3H-imidazo[4,5-b]pyridin-2-yl)-1H-pyrazolo[4,3-b]pyridine] | > 10 µM | 5.8% |
| Cc1cn(-c2ccnc3[nH]c(-c4n[nH]c5ccc(C6=CCNCC6)nc45)nc23)cn1 [Compound 618, 3-(7-(4-Methyl-1H-imidazol-1-yl)-3H-imidazo[4,5-b]pyridin-2-yl)-5-(1,2,3,6-tetrahydropyridin-4-yl)-1H-pyrazolo[4,3-b]pyridine] | > 10 µM | 8.7% |
| Cc1cn(-c2ccnc3[nH]c(-c4n[nH]c5ccc(-c6cncc(N7CC(N)C7)n6)nc45)nc23)cn1 [Compound 622, 1-(6-(3-(7-(4-Methyl-1H-imidazol-1-yl)-3H-imidazo[4,5-b]pyridin-2-yl)-1H-pyrazolo[4,3-b]pyridin-5-yl)pyrazin-2-yl)azetidin-3-amine] | > 10 µM | 9.8% |
| Cc1cn(-c2ccnc3[nH]c(-c4n[nH]c5ccc(-c6cncc(OCCN(C)C)c6)nc45)nc23)cn1 [Compound 627, N,N-Dimethyl-2-((5-(3-(7-(4-methyl-1H-imidazol-1-yl)-3H-imidazo[4,5-b]pyridin-2-yl)-1H-pyrazolo[4,3-b]pyridin-5-yl)pyridin-3-yl)oxy)ethan-1-amine] | > 10 µM | 22.4% |

The next lines start with results.

| EC50 | Compound | inhibition at 10 µM |
| --- | --- | --- |
| > 10 µM | O=C(Nc1cncc(-c2ccc3[nH]nc(-c4nc5c(-c6cccc(F)c6)ccnc5[nH]4)c3n2)c1)C1CC1 [Compound 20, N-(5-(3-(7-(3-Fluorophenyl)-3H-imidazo[4,5-b]pyridin-2-yl)-1H-pyrazolo [4,3-b]pyridin-5-yl)pyridin-3-yl)cyclopropanecarboxamide] | 51.2% |
| > 10 µM | O=C(Nc1cncc(-c2ccc3[nH]nc(-c4nc5c(-c6ccccc6F)ccnc5[nH]4)c3n2)c1)C1CCCC1 [Compound 78, N-(5-(3-(7-(2-fluorophenyl)-3H-imidazo[4,5-b]pyridin-2-yl)-1H-pyrazolo [4,3-b]pyridin-5-yl)pyridin-3-yl)cyclopentanecarboxamide] | 39.4% |
| > 10 µM | c1cc(-c2ccc3[nH]nc(-c4nc5c(-c6ccncc6)ccnc5[nH]4)c3n2)ccn1 [Compound 130, 5-(pyridin-4-yl)-3-(7-(pyridin-4-yl)-3H-imidazo[4,5-b]pyridin-2-yl)-1H-pyrazolo [4,3-b]pyridine] | 12.1% |
| > 10 µM | O=C(Nc1cncc(-c2ccc3[nH]nc(-c4nc5c(-c6ccccn6)ccnc5[nH]4)c3n2)c1)c1ccccc1 [Compound 151, N-(5-(3-(7-(Pyridin-2-yl)-3H-imidazo[4,5-b]pyridin-2-yl)-1H-pyrazolo[4,3-b]pyridin-5-yl)pyridin-3-yl)benzamide] | 6.4% |
| > 10 µM | CN1CCN(c2ccnc3[nH]c(-c4n[nH]c5ccc(-c6cncc(NC(=O)C7CCCC7)c6)nc45)nc23)CC1 [Compound 246, N-(5-(3-(7-(4-Methylpiperazin-1-yl)-3H-imidazo[4,5-b]pyridin-2-yl)-1H-pyrazolo[4,3-b]pyridin-5-yl)pyridin-3-yl)cyclopentanecarboxamide] | 4.2% |
| > 10 µM | CN1CCN(c2ccnc3[nH]c(-c4n[nH]c5ccc(-c6cncnc6)nc45)nc23)CC1 [Compound 251, 3-(7-(4-Methylpiperazin-1-yl)-3H-imidazo[4,5-b]pyridin-2-yl)-5-(pyrimidin-5-yl)-1H-pyrazolo[4,3-b]pyridine] | 16.5% |
| > 10 µM | O=C(Cc1ccccc1)Nc1cncc(-c2ccc3[nH]nc(-c4nc5cccnc5[nH]4)c3n2)c1 [Compound 262, N-(5-(3-(3H-imidazo[4,5-b]pyridin-2-yl)-1H-pyrazolo[4,3-b]pyridin-5-yl)pyridin-3-yl)-2-phenylacetamide] | 7.6% |
| > 10 µM | CC(C)(C)CC(=O)Nc1cncc(-c2ccc3[nH]nc(-c4nc5cccnc5[nH]4)c3n2)c1 [Compound 268, N-(5-(3-(3H-Imidazo[4,5-b]pyridin-2-yl)-1H-pyrazolo[4,3-b]pyridin-5-yl)pyridin-3-yl)-3,3-dimethylbutanamide] | 1.9% |
| > 10 µM | O=C(Nc1cncc(-c2ccc3[nH]nc(-c4nc5cccnc5[nH]4)c3n2)c1)C1CCCCC1 [Compound 275, N-(5-(3-(3H-Imidazo[4,5-b]pyridin-2-yl)-1H-pyrazolo[4,3-b]pyridin-5-yl)pyridin-3-yl)cyclohexanecarboxamide] | 3.1% |
| > 10 µM | Cc1ccc(-c2ccnc3[nH]c(-c4n[nH]c5ccc(-c6cncc(NC(=O)C7CCCC7)c6)nc45)nc23)s1 [Compound 414, N-(5-(3-(7-(5-Methylthiophen-2-yl)-3H-imidazo[4,5-b]pyridin-2-yl)-1H-pyrazolo[4,3-b]pyridin-5-yl)pyridin-3-yl)cyclopentanecarboxamide] | 47% |
| > 10 µM | CN(C)CCNc1cc(F)cc(-c2ccnc3[nH]c(-c4n[nH]c5ccc(-c6ccccn6)nc45)nc23)c1 [Compound 476, N^1-(3-Fluoro-5-(2-(5-(pyridin-2-yl)-1H-pyrazolo[4,3-b]pyridin-3-yl)-3H-imidazo[4,5-b]pyridin-7-yl)phenyl)-N^2,N^2-dimethylethane-1,2-diamine] | 15.5% |
| > 10 µM | CS(=O)(=O)NCc1cc(F)cc(-c2ccnc3[nH]c(-c4n[nH]c5ccc(-c6cncc(NC(=O)c7ccccc7)c6)nc45)nc23)c1 [Compound 487, N-(5-(3-(7-(3-Fluoro-5-(methylsulfonamidomethyl)phenyl)-3H-imidazo[4,5-b]pyridin-2-yl)-1H-pyrazolo[4,3-b]pyridin-5-yl)pyridin-3-yl)benzamide] | 7.1% |
| > 10 µM | CS(=O)(=O)NCc1cc(F)cc(-c2ccnc3[nH]c(-c4n[nH]c5ccc(-c6cncnc6)nc45)nc23)c1 [Compound 503, N-(3-Fluoro-5-(2-(5-(pyrimidin-5-yl)-1H-pyrazolo[4,3-b]pyridin-3-yl)-3H-imidazo[4,5-b]pyridin-7-yl)benzyl)methanesulfonamide] | 14.1% |
| > 10 µM | c1cncc(-c2ccnc3[nH]c(-c4n[nH]c5ccc(-c6cncc(OC7CCCCC7)c6)nc45)nc23)c1 [Compound 559, 5-(5-(Cyclohexyloxy)pyridin-3-yl)-3-(7-(pyridin-3-yl)-3H-imidazo[4,5-b]pyridin-2-yl)-1H-pyrazolo[4,3-b]pyridine] | 12.4% |
| 4.06 µM | CN1CCN(c2ccnc3[nH]c(-c4n[nH]c5ccc(-c6cncc(OC7CCCCC7)c6)nc45)nc23)CC1 [Compound 639, 5-(5-(Cyclohexyloxy)pyridin-3-yl)-3-(7-(4-methylpiperazin-1-yl)-3H-imidazo[4,5-b]pyridin-2-yl)-1H-pyrazolo[4,3-b]pyridine] |  |
